The values that follow are results of earlier work, collected in US9173845B2, “Controlled release pharmaceutical compositions of milnacipran” (priority 2009, dated 2015).

The half-life is the time needed for the level to fall by half in the phase considered.

The conditions of this series: immediate release Milnacipran, background.

In the case of `CCN(CC)C(=O)C1(c2ccccc2)CC1CN` (stereo not drawn) [Milnacipran, cis-2-amino methyl-N,N-diethyl-1-phenyl cyclopropane carboxamide], the half-life was around 8 h.
